For data set [1], the target named is T1, Cytosolic phospholipase A2 (Homo sapiens, UniProt P47712).
T1 sequence (P47712 whole entry): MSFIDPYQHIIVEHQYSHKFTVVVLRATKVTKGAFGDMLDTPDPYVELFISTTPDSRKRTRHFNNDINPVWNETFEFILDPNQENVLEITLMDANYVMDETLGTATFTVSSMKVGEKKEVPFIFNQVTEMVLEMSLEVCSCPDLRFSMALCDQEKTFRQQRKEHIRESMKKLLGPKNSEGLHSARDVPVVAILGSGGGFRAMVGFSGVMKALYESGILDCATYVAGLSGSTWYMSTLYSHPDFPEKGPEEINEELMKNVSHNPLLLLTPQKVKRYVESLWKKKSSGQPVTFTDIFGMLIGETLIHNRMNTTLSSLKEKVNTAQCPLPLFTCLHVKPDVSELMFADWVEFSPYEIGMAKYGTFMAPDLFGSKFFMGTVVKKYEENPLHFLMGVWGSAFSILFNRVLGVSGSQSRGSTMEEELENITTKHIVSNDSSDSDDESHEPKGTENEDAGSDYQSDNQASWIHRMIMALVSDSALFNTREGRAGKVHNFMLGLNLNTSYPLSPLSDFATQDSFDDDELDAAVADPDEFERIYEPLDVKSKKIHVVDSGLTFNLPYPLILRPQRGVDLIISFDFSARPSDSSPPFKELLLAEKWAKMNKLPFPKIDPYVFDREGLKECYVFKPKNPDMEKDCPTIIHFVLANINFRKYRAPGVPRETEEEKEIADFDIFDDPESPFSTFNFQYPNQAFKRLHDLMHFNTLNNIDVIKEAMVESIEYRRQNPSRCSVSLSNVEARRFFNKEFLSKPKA
Put plainly: Inhibition of cytosolic phospholipase A2-alpha in GLU micelle assay.

A short description of data set [2]: Inhibition of TXB2 production in Sprague-Dawley rat whole blood. The class given is functional, tissue-based.
A short description of data set [3]: Inhibition of LTB4 production expressed in MC9 cells in presence of 1 megacells/mL. Type of data set: functional, cell-based. The conditions noted are these: Mus musculus.
The nature of data set [4]: Inhibition of LTB4 production expressed in MC9 cells in presence of 4 megacells/mL. Type of data set: functional, cell-based. The conditions noted are these: Mus musculus.
A short description of data set [5]: Inhibition of LTB4 production expressed in MC9 cells in presence of 8 megacells/mL. The class given is functional, cell-based. The note with it: Mus musculus.
Data set [6] can be described thus: Inhibition of LTB4 production in MC9 cells at 0.5 uM. Type of data set: functional. The conditions noted are these: Mus musculus.
A short description of data set [7]: Inhibition of PGF2-alpha production in MC9 cells at 0.5 uM. The conditions noted are these: Mus musculus. Type of data set: functional.
Data set [8] can be described thus: Inhibition of PGF2-alpha production in the presence of exogenous arachidonic acid in MC9 cells at 0.5 uM. The class given is functional. The note with it: Mus musculus.
The nature of data set [9]: Inhibition of TXB2 production in human whole blood. Type of data set: functional, tissue-based.
A short description of data set [10]: Inhibition of LTB4 production in human whole blood. The class given is functional, tissue-based.
Data set [11] in a line: Plasma concentration in rat. The class given is ADME, organism-based.
Data set [12] is described as follows: Oral bioavailability in rat. Type of data set: ADME, organism-based. The conditions noted are these: in vivo.
Data set [13] is filed under the species Rattus norvegicus. The data set is described as follows: Inhibition of TXB2 production in Sprague-Dawley rat whole blood at 10 uM. The class given is functional, tissue-based.

Active and inactive are the calls of the source. The rule behind the calls is not given here. Some results are limits rather than exact numbers.

In general, IC50 refers to the concentration needed to halve the response being measured. As for `Cc1c(CCS(=O)(=O)CCc2ccc(C(=O)O)cc2)c2cc(Cl)ccc2n1C(c1ccccc1)c1ccccc1`, the results for the half-inhibitory concentration (IC50) in [1] and in [2] were 93 µM and 14 µM, respectively.

In the case of `Cc1c(CCOC(=O)Nc2ccc(C(=O)O)cc2)c2cc(Cl)ccc2n1C(c1ccccc1)c1ccccc1`, the results for the IC50 in data set [1] and in [2] were 38 µM and 13 µM, respectively.

On to `COc1ccc2c(c1)c(CCS(=O)(=O)c1ccc(C(=O)O)cc1)c(C)n2C(c1ccccc1)c1ccccc1`, for which the IC50 in data set [1] worked out at 3 µM; in data set [2], 7 µM.

Regarding `Cc1c(CCOc2ccc(C(=O)O)c(F)c2)c2cc(Cl)ccc2n1C(c1ccccc1)c1ccccc1`, the figures for the IC50 in [1] and in data set [2] were 2 µM and 8 µM, respectively.

Regarding `Cc1c(CCOc2ccc(C(=O)O)cc2)c2cc(-c3ccccc3)ccc2n1C(c1ccccc1)c1ccccc1`, the IC50 in [1] worked out at 33 µM; in [2], 9 µM.

As for `COC(=O)c1ccc(OCCc2c(C(C)(C)C)n(C(c3ccccc3)c3ccccc3)c3ccc(Cl)cc23)cc1`, the IC50 in [1] is 20 µM; in [2], above 25 µM.

In the case of `Cc1c(CCOc2ccc(C(=O)O)c(Cl)c2)c2cc(Cl)ccc2n1C(c1ccccc1)c1ccccc1`, the 50% inhibitory concentration (IC50) amounted to 7 µM in data set [1] and 25 µM in data set [2].

For the compound `COc1cc(C(=O)O)ccc1Cc1cn(C(c2ccccc2)c2ccccc2)c2cc(Cl)ccc12`, the IC50 in data set [1] is 160 µM; in data set [2], above 400 µM; in [3], 0.8 µM; in [4] it was 1.5 µM; in data set [5] it was 8.3 µM.

In the case of `Cc1c(CCNc2ccc(C(=O)O)cc2)c2cc(Cl)ccc2n1C(c1ccccc1)c1ccccc1`, the IC50 was 23 µM in data set [1] and above 25 µM in data set [2].

As to `Cc1c(CCS(=O)(=O)c2ccc(C(=O)O)cc2)c2c(Cl)cccc2n1C(c1ccccc1)c1ccccc1`, the values for the IC50 in data set [1] and in data set [2] were 2 µM and 12 µM, respectively.

Take `O=C(COc1ccc(SCCCCCc2ccccc2)cc1)COc1ccc(C(=O)O)cc1`: the IC50 in [1] is 0.04 µM; in [2], 12 µM; in data set [4], 1.5 µM.

Turning to `Cc1c(CCOc2ccc(CCCC(=O)O)cc2)c2cc(Cl)ccc2n1C(c1ccccc1)c1ccccc1`, the IC50 turned out to be 20 µM in data set [1] and 50 µM in data set [2].

As for `Cc1c(CCS(=O)(=O)c2ccc(C(=O)O)cc2)c2cc(F)ccc2n1C(c1ccccc1)c1ccccc1`, the IC50 in data set [1] was 1 µM; in data set [2], 5 µM.

Regarding `Cc1c(CCOc2ccc(C(=O)O)cc2)c2cc(Br)ccc2n1C(c1ccccc1)c1ccccc1`, the IC50 in data set [1] was found to be 2 µM; in data set [2], 3 µM.

On to `Cc1c(CCOc2cccc(C(=O)O)c2)c2cc(Cl)ccc2n1C(c1ccccc1)c1ccccc1`, for which the figures for the IC50 in data set [1] and in [2] were 120 µM and above 50 µM, respectively.

As usually defined, the inhibition is the share of the control response that was lost under treatment. In general, clearance refers to a measure of how efficiently the substance is removed, as volume per time. Read a high clearance as efficient removal. As usually defined, the bioavailability is the share of a dose that reaches the circulation, judged against a reference dose that is usually intravenous. On to `Cc1c(CCS(=O)(=O)c2ccc(C(=O)O)cc2)c2cc(Cl)ccc2n1C(c1ccccc1)c1ccccc1`, for which the IC50 in [1] is 0.8 µM; in [2], 2 µM; in [9], 8.4 µM; in data set [10], 6.3 µM. In addition, the inhibition at 0.5 µM was 82% in data set [6], 72% in data set [7] and 8% in [8]. Moreover, the clearance in data set [11] is 44 mL/min/kg. The bioavailability in data set [12] stood at 39%.

Take `Cc1c(CCOc2ccc(C(=O)O)cc2Cl)c2cc(Cl)ccc2n1C(c1ccccc1)c1ccccc1`: the results for the IC50 in [1] and in [2] were 11 µM and 25 µM, respectively.

Turning to `Cc1c(CCOc2cc(C(=O)O)on2)c2cc(Cl)ccc2n1C(c1ccccc1)c1ccccc1`, the results for the IC50 in [1] and in data set [2] were 40 µM and above 50 µM, respectively.

Take `Cc1c(CC[S+]([O-])CCc2ccc(C(=O)O)cc2)c2cc(Cl)ccc2n1C(c1ccccc1)c1ccccc1` (stereo not drawn): the IC50 in [1] was 18 µM; in data set [2], 25 µM.

`O=C(O)c1cccc(CC(O)Cc2cn(C(c3ccccc3)c3ccccc3)c3cc(Cl)ccc23)c1` (stereo not drawn) showed an IC50 in data set [1] of 90 µM.

Consider `Cc1c(CC[S+]([O-])c2ccc(C(=O)O)cc2)c2cc(Cl)ccc2n1C(c1ccccc1)c1ccccc1` (stereo not drawn), for which the IC50 in [1] amounted to 1 µM; in [2], 3 µM.

For the compound `Cc1c(C(=O)C(=O)Nc2ccc(C(=O)O)cc2)c2cc(Cl)ccc2n1C(c1ccccc1)c1ccccc1`, the half-inhibitory concentration (IC50) in [1] was determined as 26 µM; in data set [2] it was 25 µM.

Turning to `Cc1c(CCS(=O)(=O)c2ccc(C(=O)O)cc2)c2cc(Cl)c(Cl)cc2n1C(c1ccccc1)c1ccccc1`, the IC50 in data set [1] is 3 µM; in data set [2], 2 µM.

Consider `Cc1c(CCS(=O)(=O)c2ccc(C(=O)O)cc2)c2ccc(Cl)cc2n1C(c1ccccc1)c1ccccc1`, for which the IC50 in data set [1] was determined as 4 µM; in data set [2] it was 5 µM.

Compound `Cc1c(CCOc2ccc(C(=O)O)cc2)c2cc(N)ccc2n1C(c1ccccc1)c1ccccc1` gave an IC50 in data set [1] of 8 µM. In [13], the inhibition result was “inactive”.

Turning to `Cc1c(CCS(=O)(=O)c2ccc(C(=O)O)cc2)c2c(Cl)c(Cl)ccc2n1C(c1ccccc1)c1ccccc1`, the figures for the IC50 in [1] and in data set [2] were 1 µM and 4 µM, respectively.

On to `Cc1c(CCC(=O)NCc2ccc(C(=O)O)cc2)c2cc(Cl)ccc2n1C(c1ccccc1)c1ccccc1`, for which the IC50 was determined as 30 µM in [1] and 50 µM in [2].

For `Cc1c(CCSc2ccc(C(=O)O)cc2)c2cc(Cl)ccc2n1C(c1ccccc1)c1ccccc1`, the results for the concentration for half-maximal inhibition (IC50) in [1] and in data set [2] were 2 µM and 10 µM, respectively.

In the case of `Cc1c(CCCc2ccc(C(=O)O)cc2)c2cc(Cl)ccc2n1C(c1ccccc1)c1ccccc1`, it took 2 µM to reach half-maximal inhibition in [1] (IC50).

Consider `Cc1c(CCS(=O)(=O)c2ccc(C(=O)O)cc2)c2ccccc2n1C(c1ccccc1)c1ccccc1`, for which the half-inhibitory concentration (IC50) in [1] is 2 µM; in data set [2] it was 6 µM.

`O=C(O)c1ccc(OCCc2cn(C(c3ccccc3)c3ccccc3)c3ccc(Cl)cc23)cc1`: the IC50 in [1] stood at 5 µM; in [2], 14 µM.

For the compound `O=C(O)c1ccc(OCC(O)COc2ccc(SCCCCCc3ccccc3)cc2)cc1` (stereo not drawn), the IC50 is 340 µM in data set [1] and above 100 µM in data set [2].

As to `Cc1c(CCOc2ccc(CC(=O)O)cc2)c2cc(Cl)ccc2n1C(c1ccccc1)c1ccccc1`, the IC50 in data set [1] is above 10 µM; in data set [2], 48 µM.

With `O=C(O)c1ccc(OCCc2c(-c3ccccc3)n(C(c3ccccc3)c3ccccc3)c3ccc(Cl)cc23)cc1`, the IC50 in data set [1] and in [2] was above 50 µM throughout.

In the case of `Cc1c(CCOc2ccc(C(=O)O)cc2)c2cc(N3CCOCC3)ccc2n1C(c1ccccc1)c1ccccc1`, the IC50 is 22 µM in data set [1] and above 10 µM in data set [2].

As to `Cc1c(CCCCOc2ccc(C(=O)O)cc2)c2cc(Cl)ccc2n1C(c1ccccc1)c1ccccc1`, the values for the IC50 in data set [1] and in data set [2] were 2 µM and 9 µM, respectively.

On to `O=C(O)c1ccc(OCC(O)Cc2cn(C(c3ccccc3)c3ccccc3)c3cc(Cl)ccc23)cc1` (stereo not drawn), for which the IC50 in [1] amounted to 40 µM; in [2], 100 µM.

The compound `COc1c(Cc2cn(C(c3ccccc3)c3ccccc3)c3cc(Cl)ccc23)cccc1C(=O)O` registered an IC50 in data set [1] of 120 µM.

Turning to `Cc1c(CC(=O)O)c2cc(Cl)ccc2n1C(c1ccccc1)c1ccccc1`, the IC50 was 165 µM in [1] and below 100 µM in data set [2].

Take `Cc1c(CCOc2ccc(C(=O)O)cc2)c2cc([N+](=O)[O-])ccc2n1C(c1ccccc1)c1ccccc1`: the IC50 is 5 µM in [1] and 8 µM in data set [2].

`Cc1c(CCS(=O)(=O)c2ccc(CCC(=O)O)cc2)c2cc(Cl)ccc2n1C(c1ccccc1)c1ccccc1`: the IC50 in data set [1] worked out at 0.5 µM; in data set [2], 0.8 µM; in data set [9], 1.4 µM; in data set [10], 0.9 µM. Moreover, the inhibition at 0.5 µM worked out at 100% in [6], 100% in [7] and 2% in data set [8]. Also, in [11], the clearance was found to be 47 mL/min/kg. The same compound yielded a bioavailability in [12] of 11%.

For the compound `Cc1c(CCOc2ccc(CCC(=O)O)cc2)c2cc(Cl)ccc2n1C(c1ccccc1)c1ccccc1`, the results for the IC50 in [1] and in data set [2] were 3 µM and 2 µM, respectively.

Consider `Cc1c(CCOc2ccc(C(=O)O)cc2)c2ccc(Cl)cc2n1C(c1ccccc1)c1ccccc1`, for which the results for the IC50 in [1] and in data set [2] were 6 µM and 13 µM, respectively.

In the case of `Cc1c(CCS(=O)(=O)c2ccc(C(=O)O)cc2)c2cccc(Cl)c2n1C(c1ccccc1)c1ccccc1`, the IC50 in data set [1] was determined as 6 µM; in data set [2], 10 µM.
